For assay [1], the system named is vaginal trichomonad infection. The conditions noted are these: murine model of vaginal trichomonad infection; ref Natto et al., 2021; cited from earlier work.
Assay [2] concerns the target T. vaginalis nucleoside transporters, Adenosine (HA). As to the kind of experiment: High affinity [3H]-adenosine transport in T. vaginalis trophozoites. The conditions noted are these: read-out: Ki,app; inhibition of […] [3H]-adenosine transport, 30 s; monophasic; average and SEM. Type of assay: cell-based, Trichomonas vaginalis.
For assay [3], the target named is T. vaginalis nucleoside transporters, Guanosine (HA). As to the kind of experiment: [3H]-guanosine transport in T. vaginalis trophozoites. It is filed as cell-based, Trichomonas vaginalis. To be noted: read-out: Ki,app; inhibition of [3H]-guanosine transport; monophasic sigmoid curve; average and SEM.
Assay [4] deals with T. vaginalis nucleoside transporters, Thymidine (HA). Kind of assay: Higher affinity [3H]-thymidine transport. It is filed as cell-based, Trichomonas vaginalis.
Assay [5] deals with T. vaginalis nucleoside transporters, Adenosine (LA). As to the kind of experiment: Low affinity adenosine transport. The conditions noted are these: for Ki: read-out: Ki,app, average and SEM. Type of assay: cell-based, Trichomonas vaginalis.
Assay [6] relates to T. vaginalis nucleoside transporters, Thymidine (LA). As to the kind of experiment: Low affinity thymidine transport. Type of assay: cell-based, Trichomonas vaginalis. The conditions noted are these: for EC50: 2-site equation, Fig. 3E.
The subject of assay [7] is low affinity pyrimidine nucleobase transporter of T. vaginalis. As to the kind of experiment: [3H]-uracil transport in T. vaginalis trophozoites. It is filed as cell-based, Trichomonas vaginalis.
In assay [8] the test system is P1 transporter. To be noted: thymidine uptake by P1 transporter; ref De Koning and Jarvis, 1999; cited from earlier work.
Assay [9] concerns the target TvagENT3 (Trichomonas vaginalis, UniProt A2E5Q3). As to the kind of experiment: [3H]-cytidine uptake by T. brucei TbAT1-KO cells expressing TvagENT3.
In assay [10] the test system is uracil transporter. Type of assay: cell-based, Trypanosoma brucei. The conditions noted are these: 0.25 µM [3H]-uridine, control (empty vector) cells, 250 µM uracil.
Where [11] appears, read: Lineweaver-Burk double reciprocal plot, single experiment, Fig. 3F.
Setting [12] is: single experiment, Fig. 3C inset.
Where [13] appears, read: inhibition of 20 µM [3H]-adenosine transport.
[14] abbreviates: saturation curve, single experiment, Fig. 3E inset.
The mark [15] stands for this setting: single experiment, Fig. 5D inset.

Each structure is given as a SMILES string. “And” between values parts separate entries of the source, which are not always exact repeats. Equal entries are not always repeated. Where two headings read alike, the source gives them in different places. Where only a bound is given, the exact number is not on record here.

In the case of `Nc1ncnc2c1c(-c1ccc(Cl)cc1)cn2[C@@H]1O[C@H](CO)[C@@H](O)[C@H]1O` [7-(4-Cl-phenyl),7-deazaadenosine], the efficacy entry in assay [1] is given as “efficacious”.
By EC50 is commonly meant the concentration that produces a half-maximal response. The Km is the concentration of substrate that gives half-maximal velocity. A word on the Hill slope: it is a measure of the steepness of the concentration-response curve. Usually inhibition stands for how much of the control response was suppressed. As to `Cc1cn([C@H]2C[C@H](O)[C@@H](CO)O2)c(=O)[nH]c1=O` [thymidine], the Ki in assay [2] stood at 274 ± 45 µM; in assay [3] it was 206 ± 62 µM; in assay [5] (setting [13]), 557 ± 135 µM; in assay [9] it was 286 ± 12 µM. Besides, the inhibition of uptake in [4] (0.125 µM [3H]-thymidine by 1 mM unlabelled thymidine) was found to be 75%; in assay [6] (1 µM [3H]-thymidine by 1 mM unlabelled thymidine), 90.6%. Also, the rate of uptake in assay [4] (0.125 µM [3H]-thymidine, average of 4 experiments over 60 s) is 0.0045 ± 0.0012 pmol(10^7 cells)^−1s^−1; in [6] (1 µM [3H]-thymidine), 0.139 ± 0.008 pmol(10^7 cells)^−1s^−1. Also, the “Vmax, higher affinity component” value in assay [4] (setting [11]) was 2.2 pmol(10^7 cells)^−1s^−1. The Vmax in assay [4] (Thymidine (HA), average and SEM) is recorded as 0.69 ± 0.37 pmol(10^7 cells)^−1s^−1; in assay [4] (Thymidine (HA), average and SEM, listed as Thymidine) it was 6.7 ± 1.8 pmol(10^7 cells)^−1s^−1; in assay [4] (setting [12]), 0.245 pmol(10^7 cells)^−1s^−1; in assay [6] (Thymidine (LA), average and SEM), 9.4 ± 2.5 pmol(10^7 cells)^−1s^−1; in assay [6] (setting [14]), 12.9 pmol(10^7 cells)^−1s^−1. The EC50 in assay [4] (inhibition of 0.125 µM [3H]-thymidine uptake, single experiment, Fig. 3C/D) came to 11.7 µM; in [5] (inhibition of 20 µM [3H]-adenosine transport, single experiment, Fig. 4) it was 817 µM; in assay [6] (read-out: EC50, higher affinity component, 1 µM [3H]-thymidine, single experiment), 10.7 µM; in assay [6] (read-out: EC50, lower affinity component, 1 µM [3H]-thymidine, single experiment) it was 529 µM. In addition, the Michaelis-Menten constant (Km) in assay [4] (read-out: Km, higher affinity component, Lineweaver-Burk double reciprocal plot, single experiment, Fig. 3F) was 23.6 µM; in [4] (read-out: Km,app, Thymidine (HA), 125 nM [3H]-thymidine, average and SEM) it was 13.2 ± 0.8 µM; in assay [4] (setting [12]), 15.1 µM; in assay [6] (read-out: Km, low affinity component, Lineweaver-Burk double reciprocal plot, single experiment, Fig. 3F) it was 340 µM; in assay [6] (read-out: Km,app, Thymidine (LA), 1 µM [3H]-thymidine, average and SEM) it was 470 ± 104 µM; in [6] (setting [14]), 394 µM. Besides, the “rate of uptake in the presence of unlabelled permeant” value in assay [6] (1 µM [3H]-thymidine + 1 mM thymidine) is reported as 0.013 ± 0.0018 pmol(10^7 cells)^−1s^−1. Also, the “Vmax, low affinity component” value in assay [6] (setting [11]) was 12.0 pmol(10^7 cells)^−1s^−1. Besides, the “inhibition of uracil transport” value in [7] (uridine, thymidine up to 10 mM, adenosine, inosine up to 1 mM) is recorded as “unable to inhibit”. Moreover, the affinity in assay [8] was 44 µM. The Hill slope is given as −1.17 ± 0.15 in assay [9] and −1.1 in [9] (single experiment, Fig. 10D-F). Besides, the inhibition at 400 µM in assay [9] (read-out: inhibition of cytidine uptake) was 62.6%.
As to `O=c1cc[nH]c(=O)[nH]1` [uracil], the inhibition of transport is reported as at most 50% in assay [4] (125 nM [3H]-thymidine, nucleobase at 1 mM) and at most 50% in assay [5] (20 µM [3H]-adenosine, highest tested concentration: guanosine 250 µM, adenine 1 mM, hypoxanthine 1 mM, uracil 10 mM). In [5] (setting [13]), the Ki was over 10000 µM. The rate of uptake in assay [7] (0.5 µM [3H]-uracil) is on record as 0.0056 ± 0.0003 pmol(10^7 cells)^−1s^−1. Moreover, the “rate of uptake in the presence of unlabelled permeant” value in assay [7] (0.5 µM [3H]-uracil + 1 mM unlabelled uracil) is reported as 0.0011 ± 0.0002 pmol(10^7 cells)^−1s^−1. In addition, the EC50 in assay [7] (0.5 µM [3H]-uracil over 20 s, single experiment, Fig. 5D) is 247 µM. Moreover, the Vmax in assay [7] (0.5 µM [3H]-uracil, 20 s, average) is 1.58 ± 0.08 pmol(10^7 cells)^−1s^−1; in assay [7] (setting [15]) it was 1.43 pmol(10^7 cells)^−1s^−1. Also, the Michaelis-Menten constant (Km) was 257 ± 58 µM in assay [7] (read-out: Km,app, 0.5 µM [3H]-uracil, 20 s, average) and 298 µM in assay [7] (setting [15]). The “reduction of background uridine uptake” value in assay [10] is ~ 85% and 84.7%.

Source of the values: publication PMC8688338 (Molecular microbiology, 2021).
